Read-outs that look alike come from different tables or passages of the source.
What was measured:
[1] = test system: iCell cardiomyocytes (human iPSC-derived cardiomyocytes); test: High-content imaging of cytotoxicity and mitochondrial integrity in iPSC-CMs; assay type: cell-based; conditions: Homo sapiens, Cardiomyocyte; for viability at 0.01 µM / activity at 0.01 µM / viability at 0.1 µM / activity at 0.1 µM / viability at 1 µM / activity at 1 µM / viability at 10 µM / activity at 10 µM / viability at 100 µM / activity at 100 µM: 0.00 µM = 100.00; for viability at 0.1 µM / activity at 0.1 µM: 0.10 µM
Procedure, shortened: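 Cardiomyocytes grown on gelatinized 384-well plates received fresh medium on the experiment day and were then exposed to chemicals at 0.01–100μM. Nuclei and mitochondria were labeled with Hoechst 33342 and MitoTracker™ Orange, then fixed, and imaged on an ImageXpress® Micro Confocal system. Four-parameter logistic concentration–response fits in R, with a one-standard-deviation vehicle cutoff, gave point-of-departure values.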

HUVECs = test: High-content imaging cytotoxicity in HUVECs, 24 h; assay type: cell-based, human; conditions: Homo sapiens, HUVEC, 24 h, HUVECs; for viability at 0.01 µM / activity at 0.01 µM / viability at 0.1 µM / activity at 0.1 µM / viability at 1 µM / activity at 1 µM / viability at 10 µM / activity at 10 µM / viability at 100 µM / activity at 100 µM: 0.00 µM = 100.00; for viability at 0.1 µM / activity at 0.1 µM: 0.10 µM; for minimal effective concentration: top concentration 100.00 µM
Procedure, shortened: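 Point-of-departure values come from four-parameter logistic fits of vehicle-normalized (0.5% DMSO) imaging readouts, cutoff one SD of vehicle means, 100μM where no concentration–response. Cells: HUVEC monolayers, passages 1–5, treated 24 h at 37°C, 5% CO2, then Hoechst 33342/MitoTracker Orange/calcein AM stained, imaged at 10×.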

[2] = 1.5 h, 90min, read-out: cm.cam.90min
[3] = 1.5 h, 90min, read-out: cm.mii.90min
[4] = 1.5 h, 90min, read-out: cm.mito.90min
[5] = 1.5 h, 90min, read-out: cm.tc.90min
[6] = 24 h, 24hrs, read-out: cm.cam.24hrs
[7] = 24 h, 24hrs, read-out: cm.mii.24hrs
[8] = 24 h, 24hrs, read-out: cm.mito.24hrs
[9] = 24 h, 24hrs, read-out: cm.tc.24hrs
[10] = 24 hr, read-out: huvec.cyto.24hr
[11] = 24 hr, read-out: huvec.mito.24hr
[12] = 24 hr, read-out: huvec.mitoint.24hr
[13] = 24 hr, read-out: huvec.nma.24hr
[14] = 24 hrs, read-out: huvec.tc.24hrs

## Clc1ccc(Cl)c(-c2cc(Cl)ccc2Cl)c1 [PCB52]
[1]; [2]
  viability at 0.01 µM: 98.6%
  viability at 0.1 µM: 95.8%
  viability at 1 µM: 101%
  viability at 10 µM: 106%
  viability at 100 µM: 0.44%
[1]; [3]
  activity at 0.01 µM: 115%
  activity at 0.1 µM: 118%
  activity at 1 µM: 107%
  activity at 10 µM: 94.2%
  activity at 100 µM: 12.8%
[1]; [4]
  activity at 0.01 µM: 98.4%
  activity at 0.1 µM: 95.7%
  activity at 1 µM: 102%
  activity at 10 µM: 106%
  activity at 100 µM: 0.55%
[1]; [5]
  viability at 0.01 µM: 98.4%
  viability at 0.1 µM: 95.6%
  viability at 1 µM: 102%
  viability at 10 µM: 106%
  viability at 100 µM: 1.04%
[1]; 1.5 h, 90min, read-out: cm.cam.90min POD
  minimal effective concentration: 36 µM
[1]; 1.5 h, 90min, read-out: cm.mii.90min POD
  minimal effective concentration: 10.4 µM
[1]; 1.5 h, 90min, read-out: cm.mito.90min POD
  minimal effective concentration: 39.2 µM
[1]; 1.5 h, 90min, read-out: cm.tc.90min POD
  minimal effective concentration: 38.9 µM
[1]; [6]
  viability at 0.01 µM: 93.5%
  viability at 0.1 µM: 98.9%
  viability at 1 µM: 95.8%
  viability at 10 µM: 92%
  viability at 100 µM: 3.37%
[1]; [7]
  activity at 0.01 µM: 103%
  activity at 0.1 µM: 117%
  activity at 1 µM: 112%
  activity at 10 µM: 103%
  activity at 100 µM: 5.38%
[1]; [8]
  activity at 0.01 µM: 91.8%
  activity at 0.1 µM: 99.3%
  activity at 1 µM: 95.8%
  activity at 10 µM: 90.3%
  activity at 100 µM: 0.14%
[1]; [9]
  viability at 0.01 µM: 94.3%
  viability at 0.1 µM: 98.8%
  viability at 1 µM: 96.3%
  viability at 10 µM: 92.3%
  viability at 100 µM: 7.71%
[1]; 24 h, read-out: cm.cam.24hrs POD
  minimal effective concentration: 7.5 µM
[1]; 24 h, read-out: cm.mii.24hrs POD
  minimal effective concentration: 34.4 µM
[1]; 24 h, read-out: cm.mito.24hrs POD
  minimal effective concentration: 7.32 µM
[1]; 24 h, read-out: cm.tc.24hrs POD
  minimal effective concentration: 8.11 µM
HUVECs; [10]
  viability at 0.01 µM: 94.7%
  viability at 0.1 µM: 97.3%
  viability at 1 µM: 92.5%
  viability at 10 µM: 66.8%
  viability at 100 µM: 45%
HUVECs; [11]
  activity at 0.01 µM: 94.8%
  activity at 0.1 µM: 96.5%
  activity at 1 µM: 92%
  activity at 10 µM: 60%
  activity at 100 µM: 20.7%
HUVECs; [12]
  activity at 0.01 µM: 107%
  activity at 0.1 µM: 116%
  activity at 1 µM: 106%
  activity at 10 µM: 55.7%
  activity at 100 µM: 14.1%
HUVECs; [13]
  activity at 0.01 µM: 101%
  activity at 0.1 µM: 97.7%
  activity at 1 µM: 100%
  activity at 10 µM: 74.2%
  activity at 100 µM: 49.2%
HUVECs; 24 hr, read-out: huvec.cyto.24hr POD
  minimal effective concentration: 0.67 µM
HUVECs; 24 hr, read-out: huvec.mito.24hr POD
  minimal effective concentration: 0.57 µM
HUVECs; 24 hr, read-out: huvec.mitoint.24hr POD
  minimal effective concentration: 6.01 µM
HUVECs; 24 hr, read-out: huvec.nma.24hr POD
  minimal effective concentration: 4.97 µM
HUVECs; [14]
  viability at 0.01 µM: 94.7%
  viability at 0.1 µM: 97.3%
  viability at 1 µM: 92.5%
  viability at 10 µM: 66.8%
  viability at 100 µM: 45%
HUVECs; 24 hrs, read-out: huvec.tc.24hrs POD
  minimal effective concentration: 0.67 µM
